From patent publication US20250231185A1, “Coronavirus T Cell Epitopes, Megapools and Uses Thereof” (La Jolla Institute for Immunology, priority 2021, published 2025) come the findings set out here.

The subject of one assay is CD4+ T cells. The experiment in a line: Meta-analysis of published SARS-CoV-2 CD4 T cell epitope data curated in the IEDB (25 studies). The format is cell-based, human. As to conditions: CD4R (D) Megapool, non-spike antigens; dominant = recognized in 3 or more donors/studies.
Consider 2317 (AIVLQLPQGTTLPKG) [compound 2317], for which the Dominant result is “Yes (more dominant epitopes are defined by being recognized by 3 or more donors/different studies)”.

In the case of 2318 (AGNGGDAALALLLLD) [compound 2318], the Dominant entry is given as “Yes (more dominant epitopes are defined by being recognized by 3 or more donors/different studies)”.

For 2319 (DAALALLLLDRLNQL) [compound 2319], the Dominant entry is “Yes (more dominant epitopes are defined by being recognized by 3 or more donors/different studies)”.

Take 2320 (LLLLDRLNQLESKMS) [compound 2320]: the Dominant result is “Yes (more dominant epitopes are defined by being recognized by 3 or more donors/different studies)”.

For the substance 2321 (AAEASKKPRQKRTAT) [compound 2321], the Dominant result is listed as “Yes (more dominant epitopes are defined by being recognized by 3 or more donors/different studies)”.

Consider 2322 (KKPRQKRTATKAYNV) [compound 2322], for which the Dominant entry was “Yes (more dominant epitopes are defined by being recognized by 3 or more donors/different studies)”.

For 2323 (KRTATKAYNVTQAFG) [compound 2323], the Dominant result is reported as “Yes (more dominant epitopes are defined by being recognized by 3 or more donors/different studies)”.

With 2325 (LIRQGTDYKHWPQIA) [compound 2325], the Dominant result is “Yes (more dominant epitopes are defined by being recognized by 3 or more donors/different studies)”.

Turning to 2326 (YKHWPQIAQFAPSAS) [compound 2326], the Dominant entry is given as “Yes (more dominant epitopes are defined by being recognized by 3 or more donors/different studies)”.

In the case of 2327 (WPQIAQFAPSASAFF) [compound 2327], the Dominant result is “Yes (more dominant epitopes are defined by being recognized by 3 or more donors/different studies)”.

For 2328 (ASAFFGMSRIGMEVT) [compound 2328], the Dominant result is “Yes (more dominant epitopes are defined by being recognized by 3 or more donors/different studies)”.

For “2329 (GMEVTPSGTWLTYTGAIKLD) [compound 2329]”, the Dominant entry was “Yes (more dominant epitopes are defined by being recognized by 3 or more donors/different studies)”.

Consider 2330 (PSGTWLTYTGAIKLD) [compound 2330], for which the Dominant entry is on record as “Yes (more dominant epitopes are defined by being recognized by 3 or more donors/different studies)”.

On to 2331 (GTWLTYTGAIKLDDK) [compound 2331], for which the Dominant result is recorded as “Yes (more dominant epitopes are defined by being recognized by 3 or more donors/different studies)”.

As for 2332 (FKDQVILLNKHIDAY) [compound 2332], the Dominant entry is “Yes (more dominant epitopes are defined by being recognized by 3 or more donors/different studies)”.

In the case of 2333 (ILLNKHIDAYKTFPP) [compound 2333], the Dominant result is given as “Yes (more dominant epitopes are defined by being recognized by 3 or more donors/different studies)”.

For the substance 2345 (QEEVQELYSPIFLIV) [compound 2345], the Dominant result is given as “Yes (more dominant epitopes are defined by being recognized by 3 or more donors/different studies)”.

The assay is the same for the next values; noted with them: CD4RE megapool peptides (non-spike SARS-CoV-2 CD4 epitopes); dominant = recognized by 3 or more donors/different studies.
Regarding 2616 (FYVYSRVKNLNSSRV) [compound 2616], the Dominant result is given as “Yes (more dominant epitopes are defined by being recognized by 3 or more donors/different studies)”.

2617 (QFAYANRNRFLYIIK) [compound 2617]: the Dominant result was “Yes (more dominant epitopes are defined by being recognized by 3 or more donors/different studies)”.

For 2618 (VLAAVYRINWITGGI) [compound 2618], the Dominant result is given as “Yes (more dominant epitopes are defined by being recognized by 3 or more donors/different studies)”.

As to 2619 (YRINWITGGIAIAMA) [compound 2619], the Dominant entry was “Yes (more dominant epitopes are defined by being recognized by 3 or more donors/different studies)”.

In the case of 2620 (CLVGLMWLSYFIASF) [compound 2620], the Dominant result is on record as “Yes (more dominant epitopes are defined by being recognized by 3 or more donors/different studies)”.

Regarding 2621 (MWLSYFIASFRLFAR) [compound 2621], the Dominant result is given as “Yes (more dominant epitopes are defined by being recognized by 3 or more donors/different studies)”.

For the substance 2622 (TNILLNVPLHGTILT) [compound 2622], the Dominant result is on record as “Yes (more dominant epitopes are defined by being recognized by 3 or more donors/different studies)”.

As for 2623 (SELVIGAVILRGHLR) [compound 2623], the Dominant result was “Yes (more dominant epitopes are defined by being recognized by 3 or more donors/different studies)”.

For the substance “2624 (GAVILRGHLRIAGHHLGR) [compound 2624]”, the Dominant entry is recorded as “Yes (more dominant epitopes are defined by being recognized by 3 or more donors/different studies)”.

Consider 2625 (LRGHLRIAGHHLGRC) [compound 2625], for which the Dominant result is given as “Yes (more dominant epitopes are defined by being recognized by 3 or more donors/different studies)”.

As to 2626 (RGHLRIAGHHLGRCD) [compound 2626], the Dominant result is “Yes (more dominant epitopes are defined by being recognized by 3 or more donors/different studies)”.

2627 (IAGHHLGRCDIKDLP) [compound 2627]: the Dominant entry is on record as “Yes (more dominant epitopes are defined by being recognized by 3 or more donors/different studies)”.

Take 2629 (IKDLPKEITVATSRT) [compound 2629]: the Dominant entry is recorded as “Yes (more dominant epitopes are defined by being recognized by 3 or more donors/different studies)”.

Regarding 2630 (KEITVATSRTLSYYK) [compound 2630], the Dominant entry is given as “Yes (more dominant epitopes are defined by being recognized by 3 or more donors/different studies)”.

Turning to “2631 (TSRTLSYYKLGASQRVA) [compound 2631]”, the Dominant entry is reported as “Yes (more dominant epitopes are defined by being recognized by 3 or more donors/different studies)”.

In the case of 2632 (SRTLSYYKLGASQRV) [compound 2632], the Dominant result is “Yes (more dominant epitopes are defined by being recognized by 3 or more donors/different studies)”.

With 2634 (SYYKLGASQRVAGDS) [compound 2634], the Dominant entry is on record as “Yes (more dominant epitopes are defined by being recognized by 3 or more donors/different studies)”.

With 2635 (LGASQRVAGDSGFAA) [compound 2635], the Dominant entry was “Yes (more dominant epitopes are defined by being recognized by 3 or more donors/different studies)”.

For the substance 2636 (SGFAAYSRYRIGNYK) [compound 2636], the Dominant entry was “Yes (more dominant epitopes are defined by being recognized by 3 or more donors/different studies)”.

Take 2637 (ASWFTALTQHGKEDL) [compound 2637]: the Dominant entry is given as “Yes (more dominant epitopes are defined by being recognized by 3 or more donors/different studies)”.

With 2638 (SWFTALTQHGKEDLK) [compound 2638], the Dominant entry was “Yes (more dominant epitopes are defined by being recognized by 3 or more donors/different studies)”.

With 2639 (DDQIGYYRRATRRIR) [compound 2639], the Dominant result is “Yes (more dominant epitopes are defined by being recognized by 3 or more donors/different studies)”.

With 2640 (IGYYRRATRRIRGGD) [compound 2640], the Dominant entry is given as “Yes (more dominant epitopes are defined by being recognized by 3 or more donors/different studies)”.

With 2641 (YYRRATRRIRGGDGK) [compound 2641], the Dominant result is “Yes (more dominant epitopes are defined by being recognized by 3 or more donors/different studies)”.

In the case of 2643 (RWYFYYLGTGPEAGL) [compound 2643], the Dominant entry was “Yes (more dominant epitopes are defined by being recognized by 3 or more donors/different studies)”.

Consider 2644 (NKDGIIWVATEGALN) [compound 2644], for which the Dominant result is listed as “Yes (more dominant epitopes are defined by being recognized by 3 or more donors/different studies)”.

As to 2645 (KDGIIWVATEGALNT) [compound 2645], the Dominant entry is reported as “Yes (more dominant epitopes are defined by being recognized by 3 or more donors/different studies)”.

2646 (AIVLQLPQGTTLPKG) [compound 2646]: the Dominant result is reported as “Yes (more dominant epitopes are defined by being recognized by 3 or more donors/different studies)”.

Turning to 2647 (AGNGGDAALALLLLD) [compound 2647], the Dominant result is on record as “Yes (more dominant epitopes are defined by being recognized by 3 or more donors/different studies)”.

Take 2648 (DAALALLLLDRLNQL) [compound 2648]: the Dominant result is “Yes (more dominant epitopes are defined by being recognized by 3 or more donors/different studies)”.

Consider 2649 (LLLLDRLNQLESKMS) [compound 2649], for which the Dominant entry is on record as “Yes (more dominant epitopes are defined by being recognized by 3 or more donors/different studies)”.

For the substance 2650 (AAEASKKPRQKRTAT) [compound 2650], the Dominant result was “Yes (more dominant epitopes are defined by being recognized by 3 or more donors/different studies)”.

Consider 2651 (KKPRQKRTATKAYNV) [compound 2651], for which the Dominant result was “Yes (more dominant epitopes are defined by being recognized by 3 or more donors/different studies)”.

In the case of 2652 (KRTATKAYNVTQAFG) [compound 2652], the Dominant result is on record as “Yes (more dominant epitopes are defined by being recognized by 3 or more donors/different studies)”.

On to 2654 (LIRQGTDYKHWPQIA) [compound 2654], for which the Dominant entry is reported as “Yes (more dominant epitopes are defined by being recognized by 3 or more donors/different studies)”.

In the case of 2655 (YKHWPQIAQFAPSAS) [compound 2655], the Dominant result was “Yes (more dominant epitopes are defined by being recognized by 3 or more donors/different studies)”.

For the substance 2656 (WPQIAQFAPSASAFF) [compound 2656], the Dominant result is listed as “Yes (more dominant epitopes are defined by being recognized by 3 or more donors/different studies)”.

Consider 2657 (ASAFFGMSRIGMEVT) [compound 2657], for which the Dominant result was “Yes (more dominant epitopes are defined by being recognized by 3 or more donors/different studies)”.

Regarding “2658 (GMEVTPSGTWLTYTGAIKLD) [compound 2658]”, the Dominant result is “Yes (more dominant epitopes are defined by being recognized by 3 or more donors/different studies)”.

Take 2659 (PSGTWLTYTGAIKLD) [compound 2659]: the Dominant result is “Yes (more dominant epitopes are defined by being recognized by 3 or more donors/different studies)”.
